Reference: article PMC5957530 (FEBS letters, 2017)
Like-named read-outs stand apart in the source and are kept apart here.

T1: cysteine synthase complex (CSC; E. coli CysE in complex with E. coli CysK) (Escherichia coli, UniProt P0A9D4)
T1 sequence (P0A9D4 1-273): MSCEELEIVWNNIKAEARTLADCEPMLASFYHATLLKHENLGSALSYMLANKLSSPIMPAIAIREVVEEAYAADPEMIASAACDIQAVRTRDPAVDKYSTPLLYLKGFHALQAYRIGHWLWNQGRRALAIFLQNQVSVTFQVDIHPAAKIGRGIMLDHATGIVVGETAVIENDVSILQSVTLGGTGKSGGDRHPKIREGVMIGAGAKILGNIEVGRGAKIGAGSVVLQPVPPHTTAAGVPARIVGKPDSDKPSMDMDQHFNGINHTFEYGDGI
T1 sequence (P0ABK5 1-323 partner): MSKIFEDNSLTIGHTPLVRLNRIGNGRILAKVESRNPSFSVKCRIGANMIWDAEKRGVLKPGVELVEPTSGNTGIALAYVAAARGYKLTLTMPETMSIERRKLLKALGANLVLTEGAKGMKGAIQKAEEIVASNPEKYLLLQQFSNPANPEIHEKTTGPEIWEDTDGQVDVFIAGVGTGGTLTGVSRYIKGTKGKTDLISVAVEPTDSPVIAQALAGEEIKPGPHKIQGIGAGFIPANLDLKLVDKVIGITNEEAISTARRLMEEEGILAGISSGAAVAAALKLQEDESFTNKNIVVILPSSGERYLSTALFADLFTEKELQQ

T2: Escherichia coli CysE (Escherichia coli, UniProt P0A9D4)
T2 sequence (P0A9D4 1-273): T1 sequence (P0A9D4 1-273)

B1: Escherichia coli CysE (Escherichia coli K-12) (protein)
chain: T1 sequence (P0A9D4 1-273)
B2: cysteine synthase complex (CSC; E. coli CysE in complex with E. coli CysK) (Escherichia coli K-12) (protein)
chain: T1 sequence (P0A9D4 1-273)
B3: serine acetyltransferase (CysE) from E. coli (enzyme, UniProt P0A9D4 1-273, looked up)
chain: T1 sequence (P0A9D4 1-273)
B4: O-acetylserine sulfhydrylase-A (CysK) from E. coli (enzyme, UniProt P0ABK5 1-323, looked up)
chain: T1 sequence (P0ABK5 1-323 partner)
modifications: bound pyridoxal 5'-phosphate (PLP) cofactor

Tests used:
[1] = target: T1, cysteine synthase complex (CSC; E. coli CysE in complex with E. coli CysK); test: L-Ser acetylation steady-state kinetics of CysE in complex with CysK; details: for apparent kcat: per CysE hexamer
Escherichia coli CysE = target: T2, Escherichia coli CysE; test: L-Ser acetylation steady-state kinetics of isolated CysE; details: for apparent kcat: per CysE hexamer
CysK = CysK (Escherichia coli, UniProt P0ABK5); test: Fluorescence titration of CysK; format: binding; details: in the presence of 10 μM L-Cys
plant CysE = plant CysE in the CSC vs free; cited from earlier work
[2] = substrate: N[C@@H](CO)C(=O)O; test: purified protein, by the assay type; details: 20.0 °C
[3] = target: B4; test: other fluorescence titration
[4] = target: B4; test: inhibition of enzyme activity
SEC = target: the molecule itself; test: SEC

Q: What does the source list for `CC(=O)SCCNC(=O)CCNC(=O)[C@H](O)C(C)(C)COP(=O)(O)OP(=O)(O)OC[C@H]1O[C@@H](n2cnc3c(N)ncnc32)[C@H](O)[C@@H]1OP(=O)(O)O` [Acetyl-CoA, acetyl-CoA]?
A: apparent kcat ([1]; +CysK fivefold molar excess, acetyl-CoA varied, L-Ser 20 mM): 416 ± 38 s⁻¹; Km ([1]; read-out: KM,acCoA, +CysK fivefold molar excess, global fit Eqn 2): 300 ± 100 µM; Kd ([1]; read-out: Kd,acCoa, +CysK fivefold molar excess, global fit Eqn 2): 100 ± 100 µM; apparent kcat (Escherichia coli CysE; -CysK, acetyl-CoA varied, L-Ser 20 mM): 306 ± 35 s⁻¹; Km (Escherichia coli CysE; read-out: KM,acCoA, -CysK, global fit Eqn 2): 300 ± 100 µM; Kd (Escherichia coli CysE; read-out: Kd,acCoa, -CysK, dissociation from unligated enzyme, global fit Eqn 2): 100 ± 100 µM; Km (Escherichia coli CysE; read-out: apparent KM, -CysK, acetyl-CoA varied, L-Ser 20 mM, 20 °C): 1400 ± 400 µM

Q: For `N[C@@H](CS)C(=O)O` [L-Cys, L-cysteine], which “fold increase in the dissociation constant of the CSC” value (CysK) is on record?
A: 10 fold

Q: What about the IC50 [1] of the same molecule?
A: 0.7 µM

Q: And the “increase of L-Cys IC50 in the CSC vs free CysE” value ([1]; presence of molar excess CysK)?
A: fourfold

Q: What about the IC50 (Escherichia coli CysE; IC50 for L-Cys, free CysE) of the same molecule?
A: 0.18 µM

Q: What about the IC50 (Escherichia coli CysE; L-Cys concentration around the IC50, 0.1 mM L-Ser (physiological), Fig. S5B) of the same molecule?
A: ~0.07 µM

Q: And the IC50 (Escherichia coli CysE; L-Cys concentration around the IC50, 20 mM L-Ser (saturating), Fig. S5B)?
A: ~0.5 µM

Q: What about the “fold increase of L-Cys Ki of plant CysE in the CSC” value (plant CysE) of the same molecule?
A: more than 35 fold

Q: What about the “increase in L-Cys IC50 of plant CysE in the CSC” value (plant CysE) of the same molecule?
A: fourfold

Q: Which Kd [1] does the source give for `N[C@@H](CO)C(=O)O` [L-Ser, L-serine] here?
A: 600 ± 200 µM

Q: What about the Ki [1] of the same molecule?
A: 16000 ± 5000 µM

Q: And the apparent kcat ([1]; +CysK fivefold molar excess, L-Ser varied, acetyl-CoA […])?
A: 228 ± 34 s⁻¹

Q: And the “increase in the L-Ser inhibition constant, CSC vs free CysE” value ([1]; CysE in complex with CysK)?
A: four fold

Q: What about the Kd (Escherichia coli CysE) of the same molecule?
A: 500 ± 200 µM

Q: And the apparent kcat (Escherichia coli CysE; -CysK, L-Ser varied, acetyl-CoA […])?
A: 228 ± 60 s⁻¹

Q: With B1 as the molecule, how does the Km ([2]; other: -CysK, L-Ser varied, acetyl-CoA […]) read?
A: 1700 ± 700 µM

Q: And the Km ([2]; other: -CysK, global fit, random-order mechanism (Eqn 2))?
A: 1300 ± 200 µM

Q: Which Km ([2]; other: +CysK fivefold molar excess, L-Ser varied, acetyl-CoA […]) does the source give for B2 here?
A: 1100 ± 400 µM

Q: What about the Km ([2]; other: +CysK fivefold molar excess, global fit Eqn 2) of the same molecule?
A: 1200 ± 200 µM

Q: With B3 as the molecule, how does the “stoichiometry N” value [3] read?
A: ~1.6 CysE:CysK

Q: And the Ki app [4]?
A: 0.0087 ± 0.001 µM

Q: And the “stoichiometry N” value (SEC)?
A: 6

Q: For B4, which “stoichiometry N” value (SEC) is on record?
A: 2
